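Five concentrations, 48 hours, 96-well plates. GI50: concentration for 50% inhibition of growth. TGI: concentration producing complete growth inhibition.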
Tests used:
Experiment in all cases: growth of human tumour cells (NCI), 48 h; in the data active means GI50 below about 0.43 µM; inactive means the rest
SF-295 CNS = test system: SF-295 CNS
HOP-62 NSCLC = test system: HOP-62 NSCLC
DU-145 prostate = test system: DU-145 prostate
OVCAR-3 ovarian = test system: OVCAR-3 ovarian
SN12C renal = test system: SN12C renal
SW-620 colon = test system: SW-620 colon
SF-539 CNS = test system: SF-539 CNS
NCI-H460 lung = test system: NCI-H460 lung
HS 578T breast = test system: HS 578T breast
MOLT-4 leukemia = test system: MOLT-4 leukemia
KM12 colon = test system: KM12 colon
SR leukemia = test system: SR leukemia
NCI-H23 lung = test system: NCI-H23 lung
MCF7 breast = test system: MCF7 breast
SK-OV-3 ovarian = test system: SK-OV-3 ovarian
RPMI-8226 leukemia = test system: RPMI-8226 leukemia
NCI-H522 lung = test system: NCI-H522 lung
HCC-2998 colon = test system: HCC-2998 colon
A549 NSCLC = test system: A549 NSCLC
MDA-MB-231 breast = test system: MDA-MB-231 breast
NCI-H226 lung = test system: NCI-H226 lung
U251 CNS = test system: U251 CNS
OVCAR-4 ovarian = test system: OVCAR-4 ovarian
SF-268 CNS = test system: SF-268 CNS
NCI/ADR-RES ovarian = test system: NCI/ADR-RES ovarian
786-0 renal = test system: 786-0 renal
K-562 leukemia = test system: K-562 leukemia
SK-MEL-2 melanoma = test system: SK-MEL-2 melanoma
MALME-3M melanoma = test system: MALME-3M melanoma
SNB-75 CNS = test system: SNB-75 CNS
IGROV1 ovarian = test system: IGROV1 ovarian
RXF 393 renal = test system: RXF 393 renal
COLO 205 colon = test system: COLO 205 colon
TK-10 renal = test system: TK-10 renal
CAKI-1 renal = test system: CAKI-1 renal
BT-549 breast = test system: BT-549 breast
HCT-116 colon = test system: HCT-116 colon
LOX IMVI melanoma = test system: LOX IMVI melanoma
SNB-19 CNS = test system: SNB-19 CNS
UACC-257 melanoma = test system: UACC-257 melanoma
UACC-62 melanoma = test system: UACC-62 melanoma
EKVX NSCLC = test system: EKVX NSCLC
ACHN renal = test system: ACHN renal
HCT-15 colon = test system: HCT-15 colon
PC-3 prostate = test system: PC-3 prostate
SK-MEL-5 melanoma = test system: SK-MEL-5 melanoma
CCRF-CEM leukemia = test system: CCRF-CEM leukemia
A498 renal = test system: A498 renal
M14 melanoma = test system: M14 melanoma
SK-MEL-28 melanoma = test system: SK-MEL-28 melanoma
T-47D breast = test system: T-47D breast
HOP-92 NSCLC = test system: HOP-92 NSCLC
UO-31 renal = test system: UO-31 renal
OVCAR-8 ovarian = test system: OVCAR-8 ovarian
OVCAR-5 ovarian = test system: OVCAR-5 ovarian
HT29 colon = test system: HT29 colon
HL-60(TB) leukemia = test system: HL-60(TB) leukemia
MDA-MB-435 = test system: MDA-MB-435

C=C1NC(=O)C(C(C)CC)NC(=O)C2CSCC(NC(=O)CCC(=O)O)C(=O)NC(Cc3ccccc3)C(=O)NC(C)C(=O)NC(CC(C)CC)C(=O)NC(C(=O)NC(Cc3ccccc3)C(=O)N3CCCC3C(=O)N2)C(C)OC(=O)C(CO)NC(=O)C(C(O)COC)N(C)C(=O)C(C(C)C)NC(=O)C(CC(C)CC)NC1=O (centres undefined)
512 nM: TGI (A498 renal)
3240 nM: TGI (MDA-MB-231 breast)
279 nM: TGI (SF-539 CNS)
359 nM: TGI (NCI-H522 lung)
427 nM: TGI (SK-MEL-5 melanoma)
active: GI50 (SF-295 CNS) 5.94 nM | GI50 (HOP-62 NSCLC) 19.8 nM | GI50 (DU-145 prostate) 23.8 nM | GI50 (OVCAR-3 ovarian) 11.8 nM | GI50 (SN12C renal) 70.7 nM | GI50 (SW-620 colon) 17.5 nM | GI50 (SF-539 CNS) 8.68 nM | GI50 (NCI-H460 lung) 4.39 nM | GI50 (HS 578T breast) 11.5 nM | GI50 (MOLT-4 leukemia) 55.2 nM | GI50 (KM12 colon) 5.29 nM | GI50 (SR leukemia) 25.9 nM | GI50 (NCI-H23 lung) 100 nM | GI50 (MCF7 breast) 12.4 nM | GI50 (SK-OV-3 ovarian) 24.3 nM | GI50 (RPMI-8226 leukemia) 21.7 nM | GI50 (NCI-H522 lung) 4.11 nM | GI50 (HCC-2998 colon) 37.7 nM | GI50 (A549 NSCLC) 26.8 nM | GI50 (MDA-MB-231 breast) 20.1 nM | GI50 (NCI-H226 lung) 117 nM | GI50 (U251 CNS) 10.1 nM | GI50 (OVCAR-4 ovarian) 339 nM | GI50 (SF-268 CNS) 34.2 nM | GI50 (NCI/ADR-RES ovarian) 30.4 nM | GI50 (786-0 renal) 35.8 nM | GI50 (K-562 leukemia) 12.4 nM | GI50 (SK-MEL-2 melanoma) 4.85 nM | GI50 (MALME-3M melanoma) 32.6 nM | GI50 (SNB-75 CNS) 4.8 nM | GI50 (IGROV1 ovarian) 112 nM | GI50 (RXF 393 renal) 13.6 nM | GI50 (COLO 205 colon) 12.9 nM | GI50 (CAKI-1 renal) 24.6 nM | GI50 (BT-549 breast) 72.8 nM | GI50 (HCT-116 colon) 13.7 nM | GI50 (LOX IMVI melanoma) 30.4 nM | GI50 (SNB-19 CNS) 25.5 nM | GI50 (UACC-62 melanoma) 3.11 nM | GI50 (EKVX NSCLC) 46 nM | GI50 (ACHN renal) 55.3 nM | GI50 (HCT-15 colon) 18.3 nM | GI50 (PC-3 prostate) 26.5 nM | GI50 (SK-MEL-5 melanoma) 6.37 nM | GI50 (CCRF-CEM leukemia) 13.7 nM | GI50 (A498 renal) 6.67 nM | GI50 (M14 melanoma) 8.78 nM | GI50 (T-47D breast) 24.2 nM | GI50 (HOP-92 NSCLC) 66.8 nM | GI50 (OVCAR-8 ovarian) 67.8 nM | GI50 (OVCAR-5 ovarian) 32.7 nM | GI50 (HT29 colon) 16.5 nM | GI50 (HL-60(TB) leukemia) 21.1 nM
39.1 nM: TGI (M14 melanoma)
> 6000 nM: TGI (SF-295 CNS) | TGI (HOP-62 NSCLC) | TGI (DU-145 prostate) | TGI (SN12C renal) | TGI (SW-620 colon) | TGI (NCI-H460 lung) | TGI (HS 578T breast) | TGI (MOLT-4 leukemia) | TGI (KM12 colon) | TGI (SR leukemia) | TGI (NCI-H23 lung) | TGI (MCF7 breast) | TGI (SK-OV-3 ovarian) | TGI (RPMI-8226 leukemia) | TGI (HCC-2998 colon) | TGI (A549 NSCLC) | TGI (NCI-H226 lung) | TGI (U251 CNS) | TGI (OVCAR-4 ovarian) | TGI (SF-268 CNS) | TGI (NCI/ADR-RES ovarian) | TGI (786-0 renal) | TGI (K-562 leukemia) | TGI (SK-MEL-2 melanoma) | TGI (MALME-3M melanoma) | TGI (SNB-75 CNS) | TGI (IGROV1 ovarian) | TGI (RXF 393 renal) | TGI (TK-10 renal) | TGI (CAKI-1 renal) | TGI (BT-549 breast) | TGI (HCT-116 colon) | TGI (LOX IMVI melanoma) | TGI (SNB-19 CNS) | TGI (UACC-257 melanoma) | TGI (UACC-62 melanoma) | TGI (EKVX NSCLC) | TGI (ACHN renal) | TGI (HCT-15 colon) | TGI (PC-3 prostate) | TGI (CCRF-CEM leukemia) | TGI (SK-MEL-28 melanoma) | TGI (T-47D breast) | TGI (UO-31 renal) | TGI (OVCAR-8 ovarian) | TGI (OVCAR-5 ovarian) | TGI (HT29 colon)
inactive: GI50 (TK-10 renal) 950 nM | GI50 (UACC-257 melanoma) > 6000 nM | GI50 (SK-MEL-28 melanoma) > 6000 nM | GI50 (UO-31 renal) 567 nM
> 4930 nM: TGI (HOP-92 NSCLC)
55.7 nM: TGI (COLO 205 colon)

CN(C)C1(N(C)C)Oc2c(c(=O)n(C)c(=O)n2C)C(c2ccc(Br)cc2)C1(F)F (centres undefined)
> 100000 nM: TGI (SF-295 CNS) | TGI (HOP-62 NSCLC) | TGI (DU-145 prostate) | TGI (OVCAR-3 ovarian) | TGI (SW-620 colon) | TGI (NCI-H460 lung) | TGI (MOLT-4 leukemia) | TGI (KM12 colon) | TGI (NCI-H23 lung) | TGI (MCF7 breast) | TGI (MDA-MB-435) | TGI (SK-OV-3 ovarian) | TGI (RPMI-8226 leukemia) | TGI (HCC-2998 colon) | TGI (A549 NSCLC) | TGI (MDA-MB-231 breast) | TGI (NCI-H226 lung) | TGI (U251 CNS) | TGI (OVCAR-4 ovarian) | TGI (SF-268 CNS) | TGI (NCI/ADR-RES ovarian) | TGI (786-0 renal) | TGI (SK-MEL-2 melanoma) | TGI (SNB-75 CNS) | TGI (RXF 393 renal) | TGI (COLO 205 colon) | TGI (TK-10 renal) | TGI (CAKI-1 renal) | TGI (BT-549 breast) | TGI (HCT-116 colon) | TGI (LOX IMVI melanoma) | TGI (SNB-19 CNS) | TGI (UACC-257 melanoma) | TGI (UACC-62 melanoma) | TGI (EKVX NSCLC) | TGI (ACHN renal) | TGI (HCT-15 colon) | TGI (PC-3 prostate) | TGI (SK-MEL-5 melanoma) | TGI (CCRF-CEM leukemia) | TGI (A498 renal) | TGI (M14 melanoma) | TGI (SK-MEL-28 melanoma) | TGI (T-47D breast) | TGI (HOP-92 NSCLC) | TGI (UO-31 renal) | TGI (OVCAR-5 ovarian)

— PubChem BioAssay (NCI)
